According to patent US9895409B2, “Remedy for gastritis and gastric ulcer” (priority 2011, dated 2018):

How the values were obtained:
Type in all cases: in vivo, Wistar rats
[1] = tested on: gastric ulcer induced by aspirin; assay: Gastric ulcer index in rats with stomach damage induced by aspirin (method of Dekanski et al.); settings: oral, once every day for 5 weeks; aspirin 50 mg/kg BW; salt 0.167 g/kg BW; glibenclamide 10 mg/kg BW; n=8
Experimental: In order to measure an effect on preventing stomach damage, five-week Wistar rats were purchased from Central Lab. Animal Inc., Seoul, Korea. A breeding room was set to be 20° C. of the temperature, 50 to 60% of relative humidity, and 12 hours of lighting cycle, and water and food were set to be freely taken. The test animals were accommodated for 2 weeks using a general feed prepared on the basis of AlN-93G, and then, the weights of the animals were measured to divide them into each of test groups (n=8). Since then, the test groups were a normal group (Con) injected with distilled water only, a control group (NaCl) injected with pure sodium chloride (NaCl, 0.167 g/kg BW) that was a main ingredient of salt only, and a heat-treated salt-treating group injected with heat-treated purple salt (0.167 g/kg BW), in which each of sample solutions was orally injected along with aspirin (50 mg/kg BW) once every day for 5 weeks. In addition, glibenclamide (10 mg/kg BW) solution inhibiting KATP channel dissolved in 0.01 N NaOH including 4% glucose was abdominally injected 1 hour before orally injecting aspirin (50 mg/kg BW) and heat-treated salt (0.167 g/kg BW), and performed once every day for 5 weeks. […]
An effect of the heat-treated purple salt obtained in Example 2 on suppressing gastric ulcer was measured.

[2] = tested on: damage of gastric mucous membrane induced by aspirin; assay: Damage of gastric mucous membrane measured as stomach thickness in rats with stomach damage induced by aspirin; settings: oral, once every day for 5 weeks; aspirin 50 mg/kg BW; salt 0.167 g/kg BW; glibenclamide 10 mg/kg BW; ocular micrometer
Experimental: In order to measure an effect on preventing stomach damage, five-week Wistar rats were purchased from Central Lab. Animal Inc., Seoul, Korea. A breeding room was set to be 20° C. of the temperature, 50 to 60% of relative humidity, and 12 hours of lighting cycle, and water and food were set to be freely taken. The test animals were accommodated for 2 weeks using a general feed prepared on the basis of AlN-93G, and then, the weights of the animals were measured to divide them into each of test groups (n=8). Since then, the test groups were a normal group (Con) injected with distilled water only, a control group (NaCl) injected with pure sodium chloride (NaCl, 0.167 g/kg BW) that was a main ingredient of salt only, and a heat-treated salt-treating group injected with heat-treated purple salt (0.167 g/kg BW), in which each of sample solutions was orally injected along with aspirin (50 mg/kg BW) once every day for 5 weeks. […] A degree of the damage of gastric mucous membrane of the heat-treated purple salt obtained in Example 2 was measured by measuring a stomach thickness. […] Since then, the stomach thicknesses were measured using an ocular micrometer.

[3] = tested on: stomach damage induced by aspirin; assay: Effect on preventing stomach damage in rats with stomach damage induced by aspirin (microscopic observation of opened stomach); settings: oral, once every day for 5 weeks; aspirin 50 mg/kg BW; salt 0.167 g/kg BW; glibenclamide 10 mg/kg BW abdominally 1 hour before
Experimental: In order to measure an effect on preventing stomach damage, five-week Wistar rats were purchased from Central Lab. Animal Inc., Seoul, Korea. A breeding room was set to be 20° C. of the temperature, 50 to 60% of relative humidity, and 12 hours of lighting cycle, and water and food were set to be freely taken. The test animals were accommodated for 2 weeks using a general feed prepared on the basis of AlN-93G, and then, the weights of the animals were measured to divide them into each of test groups (n=8). Since then, the test groups were a normal group (Con) injected with distilled water only, a control group (NaCl) injected with pure sodium chloride (NaCl, 0.167 g/kg BW) that was a main ingredient of salt only, and a heat-treated salt-treating group injected with heat-treated purple salt (0.167 g/kg BW), in which each of sample solutions was orally injected along with aspirin (50 mg/kg BW) once every day for 5 weeks. In addition, glibenclamide (10 mg/kg BW) solution inhibiting KATP channel dissolved in 0.01 N NaOH including 4% glucose was abdominally injected 1 hour before orally injecting aspirin (50 mg/kg BW) and heat-treated salt (0.167 g/kg BW), and performed once every day for 5 weeks. The respective treating groups were fasted for 24 hours before sacrificing; sacrificed; and then, the stomach was removed.

CC(=O)Oc1ccccc1C(=O)O [aspirin]
gastric ulcer index (FIG. 3) [1]: 37.3±10.4
stomach thickness (FIG. 4) [2]: very thin as compared with the normal group
stomach damage (bleeding, inflammation, mucosa) observed with optical microscope (FIG. 2) [3]: severe damage along with gastric hemorrhage
